Data taken from patent US20180117052A1, “COMBINATION THERAPIES FOR TREATING CANCERS” (Gilead Scienes, Inc., priority 2015, published 2018).

System: CD5+/CD19+ cells of PBMCs from primary chronic lymphocytic leukemia (CLL) patients
Assay: Human CLL apoptosis assay (AnnexinV+ cells by flow cytometry)
Format: cell-based
Settings: no HS-5 co-culture
Experimental: Peripheral blood mononuclear cells (PBMCs) were isolated from primary chronic lymphocytic leukemia (CLL) patients and cultured for 3-5 hours in Lymphocyte Growth Medium (LGM, RPMI 1640, 1 mM Sodium Pyruvate, 10 mM HEPES, pH 7.4, 100 U/mL Penicillin/100 μg/mL Streptomycin, 55 μM β-Mercaptoethanl, 2 mM GlutaMAX, and 10% FBS) at 37° C. with 5% CO2. Cells were then centrifuged at room temperature for 10 minutes and resuspended in an appropriate volume of LGM for plating (maximum cell density=3.12×10^6/ml). Final assay wells were set up in U-bottom 96-well tissue culture plates with HS-5 co-culture (plates were coated with 3×10^4 HS-5 cells in 100 μl overnight at 37° C. prior to the assay) or no co-culture.
Cell suspensions (80 μL, 2.5×10^5-9.4×10^4) were added to the plate and incubated for 1 hour prior to stimulation with αIgM/αIgG (7.8 μg/well) and αCD40 (4 μg/well). Cells were incubated with compounds for about 66 hours at 37° C. After incubation, the cells were transferred to deeper plates and washed once with 500 μL of 1× PBS^+/+. Cells were resuspended in Invitrogen's aqua Live/Dead reagent according to manufacturer's directions and incubated 30 minutes on ice. Aqua Live/Dead was quenched with an equal volume of PBS^+/+ with 4% FBS (FACS buffer). Cells were centrifuged and labeled with αCD5-PE, αCD19-BV421 and AnnexinV-APC in a total volume of 85 μL and incubated 30 minutes on ice. After labeling, cells were rinsed twice in FACS buffer and then fixed with BD Fixation buffer for 30 minutes on ice. Cells were rinsed twice with FACS buffer and analyzed.
For the apoptosis analysis, flow cytometric sampling of 5000-20,000 total events were collected on a BD FACS Canto II instrument using a high throughput screen (HTS) autosampler for analysis of apoptosis. CD5^+/CD19^+ cells were identified and subsequently gated for AnnexinV^+/LiveDead and AnnexinV^+/LiveDead^+ populations.
Flow cytometric data were extracted to a flow cytometry standard (fcs) file. Average percentages of AnnexinV^+ cells were determined for the positive control and negative wells (no compound). The percentage of AnnexinV^+ cells represented the percentage or levels of apoptosis. Similar results were obtained for CLL cells with HS-5 co-culture.

c1cn2cc(-c3ccc4cn[nH]c4c3)nc(Nc3ccc(N4CCOCC4)cc3)c2n1 [Compound A1, 6-(1H-indazol-6-yl)-N-(4-morpholinophenyl)imidazo[1,2-a]pyrazin-8-amine]
Percentage of the AnnexinV^+ cells (Sample 1, 30 nM Compound A1, 0 nM Compound B1): 12% | Percentage of the AnnexinV^+ cells (Sample 1, 100 nM Compound A1, 0 nM Compound B1): 12% | Percentage of the AnnexinV^+ cells (Sample 1, 300 nM Compound A1, 0 nM Compound B1): 16% | Percentage of the AnnexinV^+ cells (Sample 2, 30 nM Compound A1, 0 nM Compound B1): 9% | Percentage of the AnnexinV^+ cells (Sample 2, 100 nM Compound A1, 0 nM Compound B1): 12% | Percentage of the AnnexinV^+ cells (Sample 2, 300 nM Compound A1, 0 nM Compound B1): 20% | Percentage of the AnnexinV^+ cells (Sample 3, 30 nM Compound A1, 0 nM Compound B1): 13% | Percentage of the AnnexinV^+ cells (Sample 3, 100 nM Compound A1, 0 nM Compound B1): 15% | Percentage of the AnnexinV^+ cells (Sample 3, 300 nM Compound A1, 0 nM Compound B1): 18%

CC1(C)CCC(CN2CCN(c3ccc(C(=O)NS(=O)(=O)c4ccc(NCC5CCOCC5)c([N+](=O)[O-])c4)c(Oc4cnc5[nH]ccc5c4)c3)CC2)=C(c2ccc(Cl)cc2)C1 [Compound B1, (4-(4-{[2-(4-chlorophenyl)-4,4-dimethylcyclohex-1-en-1-yl]methyl}piperazin-1-yl)-N-({3-nitro-4-[(tetrahydro-2H-pyran-4-yl-methyl)amino]phenyl}sulfonyl)-2-(1H-pyrrolo[2,3-b]pyridin-5-yl-oxy)benzamide)]
Percentage of the AnnexinV^+ cells (Sample 1, 0 nM Compound A1, 0.8 nM Compound B1): 13% | Percentage of the AnnexinV^+ cells (Sample 1, 0 nM Compound A1, 1.6 nM Compound B1): 15% | Percentage of the AnnexinV^+ cells (Sample 1, 0 nM Compound A1, 3.1 nM Compound B1): 15% | Percentage of the AnnexinV^+ cells (Sample 1, 0 nM Compound A1, 6.3 nM Compound B1): 16% | Percentage of the AnnexinV^+ cells (Sample 1, 0 nM Compound A1, 12.5 nM Compound B1): 19% | Percentage of the AnnexinV^+ cells (Sample 1, 0 nM Compound A1, 25 nM Compound B1): 24% | Percentage of the AnnexinV^+ cells (Sample 1, 0 nM Compound A1, 50 nM Compound B1): 31% | Percentage of the AnnexinV^+ cells (Sample 1, 0 nM Compound A1, 100 nM Compound B1): 36% | Percentage of the AnnexinV^+ cells (Sample 1, 0 nM Compound A1, 200 nM Compound B1): 46% | Percentage of the AnnexinV^+ cells (Sample 2, 0 nM Compound A1, 0.8 nM Compound B1): 10% | Percentage of the AnnexinV^+ cells (Sample 2, 0 nM Compound A1, 1.6 nM Compound B1): 18% | Percentage of the AnnexinV^+ cells (Sample 2, 0 nM Compound A1, 3.1 nM Compound B1): 35% | Percentage of the AnnexinV^+ cells (Sample 2, 0 nM Compound A1, 6.3 nM Compound B1): 55% | Percentage of the AnnexinV^+ cells (Sample 2, 0 nM Compound A1, 12.5 nM Compound B1): 76% | Percentage of the AnnexinV^+ cells (Sample 2, 0 nM Compound A1, 25 nM Compound B1): 89% | Percentage of the AnnexinV^+ cells (Sample 2, 0 nM Compound A1, 50 nM Compound B1): 93% | Percentage of the AnnexinV^+ cells (Sample 2, 0 nM Compound A1, 100 nM Compound B1): 95% | Percentage of the AnnexinV^+ cells (Sample 2, 0 nM Compound A1, 200 nM Compound B1): 97% | Percentage of the AnnexinV^+ cells (Sample 3, 0 nM Compound A1, 0.8 nM Compound B1): 16% | Percentage of the AnnexinV^+ cells (Sample 3, 0 nM Compound A1, 1.6 nM Compound B1): 21% | Percentage of the AnnexinV^+ cells (Sample 3, 0 nM Compound A1, 3.1 nM Compound B1): 33% | Percentage of the AnnexinV^+ cells (Sample 3, 0 nM Compound A1, 6.3 nM Compound B1): 50% | Percentage of the AnnexinV^+ cells (Sample 3, 0 nM Compound A1, 12.5 nM Compound B1): 69% | Percentage of the AnnexinV^+ cells (Sample 3, 0 nM Compound A1, 25 nM Compound B1): 89% | Percentage of the AnnexinV^+ cells (Sample 3, 0 nM Compound A1, 50 nM Compound B1): 97% | Percentage of the AnnexinV^+ cells (Sample 3, 0 nM Compound A1, 100 nM Compound B1): 99% | Percentage of the AnnexinV^+ cells (Sample 3, 0 nM Compound A1, 200 nM Compound B1): 100%
